Experimental data taken from patent publication US20050282755A1, “Compositions having antimicrobial activity and uses thereof” (priority 2004, published 2005).
Converted amounts (≈) assume the structure as drawn. Non-standard residues stand in square brackets, D forms with d. Residues, ends and D or L forms follow the SMILES beside them. *: point of attachment. 1Nal = N[C@@H](Cc1cccc2ccccc12)C(=O)O; Lauroyl = CCCCCCCCCCCC(=O)*

How the values were obtained:
Type in all cases: cell-based
[1] = test system: Staphylococcus epidermidis ATCC 12228; assay: MIC, NCCLS M7-A6 broth microdilution (Table 9, no superscript); conditions: ATCC 12228
Method in brief: (§1)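 MIC, read as the lowest peptide concentration without visible growth compared with peptide-free wells, after overnight incubation at 37° C. Wells held cation-adjusted Mueller Hinton broth and a final inoculum of 5×10^5 to 1×10^6 CFU/mL from log-phase culture.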

[2] = test system: Escherichia coli ATCC 25922; assay: as above; conditions: ATCC 25922
Method in brief: as §1

Salmonella dublin (Lane) = assay: as above
Method in brief: as §1

[3] = test system: Pseudomonas aeruginosa ATCC 27853; assay: as above; conditions: ATCC 27853
Method in brief: as §1

[4] = test system: Staphylococcus aureus ATCC 29213; assay: MIC, NCCLS M7-A6 broth microdilution, cation-adjusted Mueller Hinton broth (Table 9, no superscript); conditions: ATCC 29213
Method in brief: as §1

[5] = test system: Propionibacterium acnes ATCC 6919; assay: MIC, agar dilution method NCCLS M11-A6, Brucella agar, anaerobic (Table 9, superscript c); conditions: ATCC 6919
Description: A bacterial suspension was prepared to allow for a final inoculum on the plate of 1.5×10^8 CFU/milliliter. After the suspension absorbed into the agar surface, the plates were incubated for 48-96 hours at 37° C. in a GasPak anaerobic chamber. The lowest concentration of peptide that contained no colony growth on the agar plate was determined as the MIC. MIC values that utilized this method of MIC determination are indicated in Table 9 with a superscript letter “c.”

[6] = test system: Candida albicans ATCC 18804; assay: MIC in yeasts, NCCLS M27-A2 broth microdilution, RPMI 1640 (Table 9, letter e); conditions: ATCC 18804
Description: Briefly, RPMI 1640 supplemented with glutamine and phenol red as a pH indicator was used in the broth microdilution method. A 96-well plate was inoculated so that the final inoculum of yeast for each well contained between 0.5×10^3 and 2.5×10^3 CFU/milliliter. […] Plates were incubated for 24 to 48 hours at 37° C. The lowest concentration of peptide that contained no visible growth was determined as the MIC. MIC values that utilized this method of MIC determination are indicated in Table 9 with a subscript letter “e.” “Peptide Number” corresponds to peptide compositions and corresponding designations in Table 3.

CCCCCCCCCCCC(=O)N[C@@H](C(=O)N[C@H](CCCNC(=N)N)C(=O)N[C@@H](C(=O)N[C@H](CO)C(=O)N[C@H](CCCNC(=N)N)C(=O)N[C@@H](C(=O)NCC(=O)N[C@H](CCCNC(=N)N)C(=O)N[C@H](CO)C(=O)N[C@H](CCCNC(=N)N)C(=O)N[C@H](Cc1c[nH]c2ccccc12)C(=O)N[C@H](CCCNC(=N)N)C(=O)N[C@H](CC(=O)O)C(=O)N[C@H](Cc1c[nH]c2ccccc12)C(=O)N[C@H](CO)C(=O)N[C@H](CCCNC(=N)N)C(=O)N[C@H](CC(N)=O)C(=O)N[C@H](Cc1ccccc1)C(=O)N[C@H](CCSC)C(=O)N[C@H](CCCNC(=N)N)C(=O)N[C@H](C)C(=O)N[C@H](C)C(=O)N[C@@H](CCCCN)C(N)=O)[C@H](C)O)C(C)C)[C@H](C)O [Peptide 80, Lauryl-trvsrtgrsrwrdwsrnfmraaK-NH2] (Lauroyl-[dT][dR][dV][dS][dR][dT]G[dR][dS][dR][dW][dR][dD][dW][dS][dR][dN][dF][dM][dR][dA][dA]K-NH2)
MIC S. epidermidis [1]: 2 µg/mL (≈ 0.653 µM) | MIC E. coli [2]: 32 µg/mL (≈ 10.4 µM) | MIC S. dublin (Salmonella dublin (Lane)): 16 µg/mL (≈ 5.22 µM) | MIC P. aeruginosa [3]: >64 µg/mL | MIC S. aureus [4]: 16 µg/mL (≈ 5.22 µM) | MIC P. acnes [5]: >64c ug/mL

CCCCCCCCCCCC(=O)N[C@@H](CCCNC(=N)N)C(=O)N[C@@H](Cc1c[nH]c2ccccc12)C(=O)N[C@@H](CCCNC(=N)N)C(=O)N[C@@H](CC(=O)O)C(=O)N[C@H](C(=O)N[C@@H](C)C(=O)N[C@@H](CCCNC(=N)N)C(N)=O)C(C)C [Peptide 105, Lauryl-RWRDVAR-NH2] (Lauroyl-RWRDVAR-NH2)
MIC S. epidermidis [1]: 8 µg/mL (≈ 7.02 µM) | MIC E. coli [2]: 32 µg/mL (≈ 28.1 µM) | MIC S. dublin (Salmonella dublin (Lane)): >32 µg/mL | MIC P. aeruginosa [3]: 32 µg/mL (≈ 28.1 µM) | MIC S. aureus [4]: 16 µg/mL (≈ 14 µM) | MIC P. acnes [5]: 32c ug/mL

CCCCCCCCCCCC(=O)N[C@@H](Cc1c[nH]c2ccccc12)C(=O)N[C@@H](CCCNC(=N)N)C(=O)N[C@@H](CC(=O)O)C(=O)N[C@H](C(=O)N[C@@H](C)C(=O)N[C@@H](CCCNC(=N)N)C(=O)N[C@@H](CC(N)=O)C(N)=O)C(C)C [Peptide 106, Lauryl-WRDVARN-NH2] (Lauroyl-WRDVARN-NH2)
MIC S. epidermidis [1]: 16 µg/mL (≈ 14.6 µM) | MIC E. coli [2]: >64 µg/mL | MIC S. dublin (Salmonella dublin (Lane)): >64 µg/mL | MIC P. aeruginosa [3]: >64 µg/mL | MIC S. aureus [4]: 8 µg/mL (≈ 7.29 µM) | MIC P. acnes [5]: >64c ug/mL

CCCCCCCCCCCC(=O)N[C@@H](CCCNC(=N)N)C(=O)N[C@@H](Cc1c[nH]c2ccccc12)C(=O)N[C@@H](CCCNC(=N)N)C(=O)N[C@@H](CC(=O)O)C(=O)N[C@H](C(=O)N[C@@H](C)C(=O)N[C@@H](CCCNC(=N)N)C(=O)N[C@@H](CC(N)=O)C(=O)N[C@@H](Cc1ccccc1)C(=O)N[C@@H](CCSC)C(=O)N[C@@H](CCCNC(=N)N)C(N)=O)C(C)C [Peptide 113, Lauryl-RWRDVARNFMR-NH2] (Lauroyl-RWRDVARNFMR-NH2)
MIC S. epidermidis [1]: 2 µg/mL (≈ 1.18 µM) | MIC E. coli [2]: 8 µg/mL (≈ 4.74 µM) | MIC S. dublin (Salmonella dublin (Lane)): 16 µg/mL (≈ 9.48 µM) | MIC P. aeruginosa [3]: >64 µg/mL | MIC S. aureus [4]: 4 µg/mL (≈ 2.37 µM) | MIC P. acnes [5]: >64c ug/mL

CCCCCCCCCCCC(=O)N[C@@H](CCCNC(=N)N)C(=O)N[C@@H](CO)C(=O)N[C@@H](CCCNC(=N)N)C(=O)N[C@@H](Cc1c[nH]c2ccccc12)C(=O)N[C@@H](CCCNC(=N)N)C(=O)N[C@@H](CC(=O)O)C(=O)N[C@@H](Cc1c[nH]c2ccccc12)C(=O)N[C@@H](Cc1c[nH]c2ccccc12)C(=O)N[C@@H](CCCNC(=N)N)C(=O)N[C@@H](CC(N)=O)C(=O)N[C@@H](Cc1c[nH]c2ccccc12)C(=O)N[C@@H](CCSC)C(=O)N[C@@H](CCCNC(=N)N)C(=O)N[C@@H](CC(C)C)C(=O)N[C@@H](CC(C)C)C(N)=O [Peptide 148, Lauryl-RSRWRDWWRNWMRLL-NH2] (Lauroyl-RSRWRDWWRNWMRLL-NH2)
MIC S. epidermidis [1]: >64 µg/mL | MIC E. coli [2]: >64 µg/mL | MIC S. dublin (Salmonella dublin (Lane)): >64 µg/mL | MIC P. aeruginosa [3]: >64 µg/mL | MIC S. aureus [4]: >64 µg/mL | MIC C. albicans [6]: 4e ug/mL

CCCCCCCCCCCC(=O)N[C@@H](CCCNC(=N)N)C(=O)N[C@@H](CO)C(=O)N[C@@H](CCCNC(=N)N)C(=O)N[C@@H](Cc1cccc2ccccc12)C(=O)N[C@@H](CCCNC(=N)N)C(=O)N[C@@H](CC(=O)O)C(=O)N[C@H](C(=O)N[C@@H](C)C(=O)N[C@@H](CCCNC(=N)N)C(=O)N[C@@H](CC(N)=O)C(=O)N[C@@H](Cc1ccccc1)C(=O)N[C@@H](CCSC)C(=O)N[C@@H](CCCNC(=N)N)C(N)=O)C(C)C [Peptide 149, Lauryl-RSRZRDVARNFMR-NH2 Z = 1-naphthylalanine] (Lauroyl-RSR[1Nal]RDVARNFMR-NH2)
MIC S. epidermidis [1]: 4 µg/mL (≈ 2.06 µM) | MIC E. coli [2]: 64 µg/mL (≈ 32.9 µM) | MIC S. dublin (Salmonella dublin (Lane)): 32 µg/mL (≈ 16.5 µM) | MIC P. aeruginosa [3]: >64 µg/mL | MIC S. aureus [4]: 16 µg/mL (≈ 8.24 µM) | MIC P. acnes [5]: 32c ug/mL
